Among the data in patent publication US9617260B2, “Inhibitors of bruton's tyrosine kinase” (Hoffmann-La Roche Inc., priority 2013, dated 2017) are IC50 values, retold here.

The structures appear in SMILES notation.

For the test, the target named is Bruton's Tyrosine Kinase (BTK), inactivated state (Homo sapiens (Human), UniProt Q06187). Nature of the test: Bruton's Tyrosine Kinase (BTK) Inhibition TR-FRET (Time Resolved FRET) competition assay. In kind it is binding. As to conditions: competition with Kinase Tracer 178 for BTK-Eu; plates incubated 18-24 h at 14° C. On the procedure:
Bruton's Tyrosine Kinase (BTK) Inhibition TR-FRET (Time Resolved FRET) Assay
This BTK competition assay measures compound potency (IC50) for the inactivated state of Bruton's Tyrosine Kinase using FRET (Förster/Fluoresence Resonance Energy Transfer) technology. The BTK-Eu complex was incubated on ice one hour prior to use at a starting concentration of 50 nM BTK-Bioease™: 10 nM Eu-streptavidin (Perkin-Elmer Catalog #AD0062). The assay buffer consisted of 20 mM HEPES (pH 7.15), 0.1 mM DTT, 10 mM MgCl2, 0.5 mg/ml BSA with 3% Kinase Stabilizer (Fremont Biosolutions, Catalog #STB-K02). After 1 h, the reaction mixture from above was diluted 10 fold in assay buffer to make 5 nM BTK: 1 nM Eu-Streptavidin complex (donor fluorophore). 18 μl of a mixture of 0.11 nM BTK-Eu and 0.11 nM Kinase Tracer 178 (Invitrogen, Catalog #PV5593,) with BTK-Eu alone as no negative control, was then dispensed into 384-well flat bottom plates (Greiner, 784076). Compounds to be tested in assay were prepared as 10× concentrations and serial dilution in half-log increments was performed in DMSO so as to generate 10 point curves. To initiate the FRET reaction, compounds prepared as 10× stock in DMSO was added to the plates and the plates were incubated 18-24 h at 14° C.
After the incubation the plates were read on a BMG Pherastar Fluorescent plate reader (or equivalent) and used to measure the emission energy from the europium donor fluorophore (620 nm emission) and the FRET (665 nm emission). The negative control well values were averaged to obtain the mean minimum. The positive “no inhibitor” control wells were averaged to obtain the mean maximum. Percent of maximal FRET was calculated using following equation: % max FRET=100×[(FSRcmpd−FSRmean min)/(FSRmean max−FSRmean min)]
where FSR=FRET Signal ratio. % Max FRET curves were plotted in Activity Base (Excel) and the IC50 (%), hill slope, z′ and % CV were determined The mean IC50 and standard deviation will be derived from duplicate curves (singlet inhibition curves from two independent dilutions) using Microsoft Excel.
Representative compound data for this assay are listed below in Table II.
(In general: TR-FRET usually uses a lanthanide donor and a delayed reading to cut background.)

Bruton's Tyrosine Kinase (BTK), inactivated state, sequence (Q06187 whole entry): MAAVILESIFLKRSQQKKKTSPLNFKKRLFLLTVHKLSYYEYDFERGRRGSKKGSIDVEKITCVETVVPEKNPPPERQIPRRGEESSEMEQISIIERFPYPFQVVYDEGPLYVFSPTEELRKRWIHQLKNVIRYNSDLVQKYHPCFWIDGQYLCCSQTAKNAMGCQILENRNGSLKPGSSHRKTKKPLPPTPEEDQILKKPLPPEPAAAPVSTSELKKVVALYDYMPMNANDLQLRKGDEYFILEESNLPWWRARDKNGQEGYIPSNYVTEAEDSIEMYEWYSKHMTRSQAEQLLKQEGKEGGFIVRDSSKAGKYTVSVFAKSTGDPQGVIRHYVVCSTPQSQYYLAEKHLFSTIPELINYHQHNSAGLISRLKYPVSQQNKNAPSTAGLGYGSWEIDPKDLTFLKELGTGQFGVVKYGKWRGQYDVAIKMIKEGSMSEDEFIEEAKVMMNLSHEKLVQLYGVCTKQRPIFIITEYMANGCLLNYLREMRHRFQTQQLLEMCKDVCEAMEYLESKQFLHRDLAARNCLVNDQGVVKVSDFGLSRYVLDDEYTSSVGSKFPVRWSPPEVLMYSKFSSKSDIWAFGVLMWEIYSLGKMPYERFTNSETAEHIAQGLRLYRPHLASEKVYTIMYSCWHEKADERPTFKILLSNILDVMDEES

In general, IC50 refers to the concentration that inhibits the measured activity by half. Read a high IC50 as weaker potency in that assay. The compound `C=CC(=O)N1CC=C(c2c[nH]c3ncc(NC(=O)OCc4ccccc4)cc23)CC1` [Compound 30, benzyl N-[3-(1-prop-2-enoyl-3,6-dihydro-2H-pyridin-4-yl)-1H-pyrrolo[2,3-b]pyridin-5-yl]carbamate] came in with an IC50 of 1.2 nM.

Consider `C=CC(=O)N1CCC(c2c[nH]c3ncc(NC(=O)OCc4ccccc4)cc23)CC1` [Compound 31, benzyl N-[3-(1-prop-2-enoylpiperidin-4-yl)-1H-pyrrolo[2,3-b]pyridin-5-yl]carbamate], for which the half-inhibitory concentration (IC50) was 0.6 nM.

Regarding `C=CC(=O)N1CCC(c2c[nH]c3ncc(NC(=O)OC(C)C)cc23)CC1` [Compound 32, propan-2-yl N-[3-(1-prop-2-enoylpiperidin-4-yl)-1H-pyrrolo[2,3-b]pyridin-5-yl]carbamate], the half-maximal inhibitory concentration (IC50) came to 27 nM.

Take `C=CC(=O)N1C=C(c2c[nH]c3ncc(NC(=O)OCc4ccccc4)cc23)CCC1` [Compound 33, benzyl N-[3-(1-prop-2-enoyl-3,4-dihydro-2H-pyridin-5-yl)-1H-pyrrolo[2,3-b]pyridin-5-yl]carbamate]: the 50% inhibitory concentration (IC50) is 0.6 nM.

`C=CC(=O)N1CC(O)(c2c[nH]c3ncc(NC(=O)OCc4ccccc4)cc23)C1` [Compound 34, benzyl N-[3-(3-hydroxy-1-prop-2-enoylazetidin-3-yl)-1H-pyrrolo[2,3-b]pyridin-5-yl]carbamate] returned an IC50 of 3.6 nM.
